Experimental data: US9737607B2, “Polymer, and pharmaceutical composition employing the same” (INDUSTRIAL TECHNOLOGY RESEARCH INSTITUTE, priority 2014, dated 2017)

Experiments:
[1] = tested on: Sal. Typhimurium TA98 strain; assay: Ames test, TA98; conditions: without S9, positive control 100 μL/plate
Description: (§1) The Ames test was carried out using Sal. Typhimurium TA98 strain and Sal. Typhimurium TA100 strain without an enzyme for activating metabolism of drugs (S9).
(§2) The Ames test was carried out using Sal. Typhimurium TA98 strain and Sal. Typhimurium TA100 strain with an enzyme for activating metabolism of drugs (S9). DMSO (100 μL/plate) was used as negative control, and (+)Benzo[α]pyrene (100 μL/plate) was used as positive control.

[2] = tested on: Sal. Typhimurium TA100 strain; assay: Ames test, TA100; conditions: without S9, positive control 100 μL/plate
Description: as §1, §2

Nc1ccc([N+](=O)[O-])cc1N [NOPD, 4-nitro-o-phenylenediamine]
TA98 (CFU/plate) [1]: 1200 CFU/plate | TA100 (CFU/plate) [2]: 1019 CFU/plate
